Inhibition data for 28 compounds are collected here from US9315490B2, “2,5-substituted pyrimidines” (Grünenthal GmbH, priority 2014, dated 2016).

The inhibition is the change of the read-out against control, counted positive when it falls.

This assay deals with T1, human PDE4B1 (Homo sapiens, UniProt Q07343).
T1 construct: host or cells: Sf9 cells
T1 sequence (Q07343 whole entry): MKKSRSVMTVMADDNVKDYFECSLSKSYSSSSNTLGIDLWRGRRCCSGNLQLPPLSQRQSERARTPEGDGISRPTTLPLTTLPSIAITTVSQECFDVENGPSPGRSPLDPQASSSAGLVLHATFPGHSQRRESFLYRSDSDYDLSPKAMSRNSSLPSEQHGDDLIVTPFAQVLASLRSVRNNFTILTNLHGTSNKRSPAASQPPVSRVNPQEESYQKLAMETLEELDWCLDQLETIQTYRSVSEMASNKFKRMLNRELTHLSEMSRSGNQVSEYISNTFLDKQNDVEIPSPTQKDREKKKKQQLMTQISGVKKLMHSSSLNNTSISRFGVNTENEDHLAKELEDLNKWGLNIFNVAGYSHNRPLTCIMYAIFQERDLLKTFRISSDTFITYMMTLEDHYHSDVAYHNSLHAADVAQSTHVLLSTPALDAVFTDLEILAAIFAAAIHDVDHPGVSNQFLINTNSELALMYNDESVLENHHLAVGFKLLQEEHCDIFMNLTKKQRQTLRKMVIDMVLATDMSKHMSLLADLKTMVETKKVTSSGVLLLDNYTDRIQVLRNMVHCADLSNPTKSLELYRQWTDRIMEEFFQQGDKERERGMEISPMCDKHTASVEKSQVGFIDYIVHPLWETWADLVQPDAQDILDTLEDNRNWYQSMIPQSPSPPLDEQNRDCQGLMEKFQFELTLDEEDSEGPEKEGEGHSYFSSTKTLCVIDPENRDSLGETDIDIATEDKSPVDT
As to the kind of experiment: TR-FRET assay using the LANCE Ultra cAMP kit to determine the activity of hPDE4B1. Format: biochemical. Conditions: test concentration 1 μM, read-out: Inhibition in % (inhibition of PDE4B). An excerpt: TR-FRET Assay Using the LANCE® Ultra cAMP Kit to Determine the Activity of hPDE4B1
The effects of the compounds on the activity of the human PDE4B1 was quantified by measuring the production of 5′AMP from cAMP using a human recombinant enzyme expressed in Sf9 cells and the LANCE® Ultra cAMP kit, a TR-FRET detection method from PerkinElmer. The human PDE4B1 enzyme was purchased from SignalChem Lifesciences (Catalog# P92-31BG, Lot# H296-2).
The test compound, reference compound or water (control) was mixed with the enzyme (0.96 U) in a reaction buffer containing 50 mM Tris-HCl, 50 mM MgCl2 and 5 mM DTT (pH 8.5). Thereafter, the reaction was initiated by addition of 500 nM cAMP (substrate) and the mixture was incubated for 30 minutes at room temperature. For control basal measurements, the enzyme was omitted from the reaction mixture. After 30 minutes, the reaction was stopped and diluted by a factor of 100 with the reaction buffer supplemented with 500 μM IBMX. The fluorescence donor (europium chelate-labeled cAMP) and the fluorescence acceptor (anti-cAMP antibody labeled with the ULight™ dye) were then added together with 500 μM IBMX to a 10 μl aliquot. After 60 minutes, the fluorescence transfer corresponding to the amount of residual cAMP was measured at λex=337 nm, λem=620 nm and λem=665 nm using a microplate reader (PHERAstar, BMG). The enzyme activity was determined by dividing the signal measured at 665 nm by that measured at 620 nm (ratio) multiplied by 10000. The results were expressed as percent inhibition of the control enzyme activity. IC50 values (IC50=concentration causing a half-maximal inhibition of control specific activity) were derived from dose response measurements with ten different concentrations (n=3; N=1-3).
For orientation: Time-resolved FRET reads energy transfer from a long-lived donor to a nearby acceptor.
For `C[S+]([O-])c1cn(-c2ncc(-c3cc(C4CC4)ccn3)cn2)c2cc(C(=O)N3CCOCC3)ccc12` (stereo not shown) [Example 258, (1-(5-(4-Cyclopropylpyridin-2-yl)pyrimidin-2-yl)-3-(methylsulfinyl)-1H-indol-6-yl)(morpholino)methanone], the inhibition at 1 µM amounted to 92%. For `CCc1ccnc(-c2cnc(-n3cc([S+](C)[O-])c4ccc(C(=O)N5CCOCC5)cc43)nc2)c1` (stereo not shown) [Example 259] the value was 95%; for `CCOc1ccnc(-c2cnc(-n3cc([S+](C)[O-])c4ccc(C(=O)N5CCOCC5)cc43)nc2)c1` (stereo not shown) [Example 260, (1-(5-(4-Ethoxypyridin-2-yl)pyrimidin-2-yl)-3-(methylsulfinyl)-1H-indol-6-yl)(morpholino)methanone], 95%.

Regarding `CCOc1ccc(F)c(-c2cnc(-n3cc([S+](C)[O-])c4ccc(C(=O)N5CCOCC5)cc43)nc2)c1` (stereo not shown) [Example 261, (1-(5-(5-Ethoxy-2-fluorophenyl)pyrimidin-2-yl)-3-(methylsulfinyl)-1H-indol-6-yl)(morpholino)methanone], the inhibition at 1 µM came out at 55%.

Take `C[S+]([O-])c1cn(-c2ncc(-c3ccc4c(c3)OCO4)cn2)c2cc(C(=O)N3CCOCC3)ccc12` (stereo not shown) [Example 262, (1-(5-(Benzo[d][1,3]dioxol-5-yl)pyrimidin-2-yl)-3-(methylsulfinyl)-1H-indol-6-yl)(morpholino)methanone]: the inhibition at 1 µM stood at 70%. Turning to `C[S+]([O-])c1cn(-c2ncc(-c3cc(OC(F)(F)F)ccc3F)cn2)c2cc(C(=O)N3CCOCC3)ccc12` (stereo not shown) [Example 263, (1-(5-(2-Fluoro-5-(trifluoromethoxy)phenyl)pyrimidin-2-yl)-3-(methylsulfinyl)-1H-indol-6-yl)(morpholino)methanone], the inhibition at 1 µM turned out to be 97%. Consider `CC(=O)Oc1ccc(F)c(-c2cnc(-n3cc([S+](C)[O-])c4ccc(C(=O)N5CCOCC5)cc43)nc2)c1` (stereo not shown) [Example 264, 4-Fluoro-3-(2-(3-(methylsulfinyl)-6-(morpholine-4-carbonyl)-1H-indol-1-yl)pyrimidin-5-yl)phenyl acetate], for which the inhibition at 1 µM is 94%. To `Cc1ccc(F)c(-c2cnc(-n3cc([S+](C)[O-])c4ccc(C(=O)N5CCCC5)cc43)nc2)c1` (stereo not shown) [Example 265, (1-(5-(2-Fluoro-5-methylphenyl)pyrimidin-2-yl)-3-(methylsulfinyl)-1H-indol-6-yl)(pyrrolidin-1-yl)methanone] belongs 98%; to `CCN(C)C(=O)c1ccc2c([S+](C)[O-])cn(-c3ncc(-c4cc(C)ccc4F)cn3)c2c1` (stereo not shown) [Example 266, N-Ethyl-1-(5-(2-fluoro-5-methylphenyl)pyrimidin-2-yl)-N-methyl-3-(methylsulfinyl)-1H-indole-6-carboxamide], 98%. For `Cc1ccc(F)c(-c2cnc(-n3cc([S+](C)[O-])c4ccc(C(=O)N(C)C)cc43)nc2)c1` (stereo not shown) [Example 267, 1-(5-(2-Fluoro-5-methylphenyl)pyrimidin-2-yl)-N,N-dimethyl-3-(methylsulfinyl)-1H-indole-6-carboxamide] the value was 94%; for `COc1ccc(F)c(-c2cnc(-n3cc([S+](C)[O-])c4ccc(C(=O)N(C)C)cc43)nc2)c1` (stereo not shown) [Example 268, 1-(5-(2-Fluoro-5-methoxyphenyl)pyrimidin-2-yl)-N,N-dimethyl-3-(methylsulfinyl)-1H-indole-6-carboxamide], 95%.

As to `Cc1ccnc(-c2cnc(-n3cc([S+](C)[O-])c4ccc(C(=O)N5CCCC5)cc43)nc2)c1` (stereo not shown) [Example 269, (1-(5-(4-Methylpyridin-2-yl)pyrimidin-2-yl)-3-(methylsulfinyl)-1H-indol-6-yl)(pyrrolidin-1-yl)methanone], the inhibition at 1 µM was found to be 97%.

As for `Cc1ccnc(-c2cnc(-n3cc([S+](C)[O-])c4ccc(C(=O)N(C)C)cc43)nc2)c1` (stereo not shown) [Example 270, N,N-Dimethyl-1-(5-(4-methylpyridin-2-yl)pyrimidin-2-yl)-3-(methylsulfinyl)-1H-indole-6-carboxamide], the inhibition at 1 µM came out at 102%. Turning to `CCN(C)C(=O)c1ccc2c([S+](C)[O-])cn(-c3ncc(-c4cc(C)ccn4)cn3)c2c1` (stereo not shown) [Example 271, N-Ethyl-N-methyl-1-(5-(4-methylpyridin-2-yl)pyrimidin-2-yl)-3-(methylsulfinyl)-1H-indole-6-carboxamide], the inhibition at 1 µM was determined as 97%. Regarding `CN(C)C(=O)c1ccc2c([S+](C)[O-])cn(-c3ncc(-c4cc(N(C)C)ccn4)cn3)c2c1` (stereo not shown) [Example 272, 1-(5-(4-(Dimethylamino)pyridin-2-yl)pyrimidin-2-yl)-N,N-dimethyl-3-(methylsulfinyl)-1H-indole-6-carboxamide], the inhibition at 1 µM is 93%. Consider `CN(C)C(=O)c1ccc2c([S+](C)[O-])cn(-c3ncc(-c4cc(N)ccn4)cn3)c2c1` (stereo not shown) [Example 273, 1-(5-(4-Aminopyridin-2-yl)pyrimidin-2-yl)-N,N-dimethyl-3-(methylsulfinyl)-1H-indole-6-carboxamide], for which the inhibition at 1 µM was 91%. `CCc1ccc(F)c(-c2cnc(-n3cc([S+](C)[O-])c4ccc(C(=O)N(C)C)cc43)nc2)c1` (stereo not shown) [Example 274, 1-(5-(5-Ethyl-2-fluorophenyl)pyrimidin-2-yl)-N,N-dimethyl-3-(methylsulfinyl)-1H-indole-6-carboxamide]: the inhibition at 1 µM was 104%.

In the case of `CCc1ccc(F)c(-c2cnc(-n3cc([S+](C)[O-])c4ccc(C(=O)N5CCCC5)cc43)nc2)c1` (stereo not shown) [Example 275, (1-(5-(5-Ethyl-2-fluorophenyl)pyrimidin-2-yl)-3-(methylsulfinyl)-1H-indol-6-yl)(pyrrolidin-1-yl)methanone], the inhibition at 1 µM was found to be 113%.

As for `CCc1ccc(F)c(-c2cnc(-n3cc([S+](C)[O-])c4ccc(C(=O)N5CCOCC5)cc43)nc2)c1` (stereo not shown) [Example 276, (1-(5-(5-Ethyl-2-fluorophenyl)pyrimidin-2-yl)-3-(methylsulfinyl)-1H-indol-6-yl)(morpholino)methanone], the inhibition at 1 µM was 106%. As to `CCc1ccnc(-c2cnc(-n3cc([S+](C)[O-])c4ccc(C(=O)N5CCCC5)cc43)nc2)c1` (stereo not shown) [Example 277, (1-(5-(4-Ethylpyridin-2-yl)pyrimidin-2-yl)-3-(methylsulfinyl)-1H-indol-6-yl)(pyrrolidin-1-yl)methanone], the inhibition at 1 µM is 93%. Turning to `CCc1ccnc(-c2cnc(-n3cc([S+](C)[O-])c4ccc(C(=O)N(C)C)cc43)nc2)c1` (stereo not shown) [Example 278, 1-(5-(4-Ethylpyridin-2-yl)pyrimidin-2-yl)-N,N-dimethyl-3-(methylsulfinyl)-1H-indole-6-carboxamide], the inhibition at 1 µM is 92%. To `COc1ccc(F)c(-c2cnc(-n3cc([S+](C)[O-])c4ccc(C(=O)N(C)CC(N)=O)cc43)nc2)c1` (stereo not shown) [Example 279, N-(2-Amino-2-oxoethyl)-1-(5-(2-fluoro-5-methoxyphenyl)pyrimidin-2-yl)-N-methyl-3-(methylsulfinyl)-1H-indole-6-carboxamide] belongs 97%; to `CCc1ccc(F)c(-c2cnc(-n3cc([S+](C)[O-])c4ccc(C(=O)N(C)CC(N)=O)cc43)nc2)c1` (stereo not shown) [Example 280, N-(2-Amino-2-oxoethyl)-1-(5-(5-ethyl-2-fluorophenyl)pyrimidin-2-yl)-N-methyl-3-(methylsulfinyl)-1H-indole-6-carboxamide], 93%.

`Cc1ccc(F)c(-c2cnc(-n3cc([S+](C)[O-])c4ccc(C(=O)N(C)CC(N)=O)cc43)nc2)c1` (stereo not shown) [Example 281, N-(2-Amino-2-oxoethyl)-1-(5-(2-fluoro-5-methylphenyl)pyrimidin-2-yl)-N-methyl-3-(methylsulfinyl)-1H-indole-6-carboxamide]: the inhibition at 1 µM worked out at 97%. For `Cc1ccnc(-c2cnc(-n3cc([S+](C)[O-])c4ccc(C(=O)N(C)CC(N)=O)cc43)nc2)c1` (stereo not shown) [Example 282, N-(2-Amino-2-oxoethyl)-N-methyl-1-(5-(4-methylpyridin-2-yl)pyrimidin-2-yl)-3-(methylsulfinyl)-1H-indole-6-carboxamide], the inhibition at 1 µM is 90%. Take `COc1ccnc(-c2cnc(-n3cc([S+](C)[O-])c4ccc(C(=O)N(C)CC(N)=O)cc43)nc2)c1` (stereo not shown) [Example 283, N-(2-Amino-2-oxoethyl)-1-(5-(4-methoxypyridin-2-yl)pyrimidin-2-yl)-N-methyl-3-(methylsulfinyl)-1H-indole-6-carboxamide]: the inhibition at 1 µM stood at 92%. On to `CN(CC(N)=O)C(=O)c1ccc2c([S+](C)[O-])cn(-c3ncc(-c4cc(N(C)C)ccn4)cn3)c2c1` (stereo not shown) [Example 284, N-(2-Amino-2-oxoethyl)-1-(5-(4-(dimethylamino)pyridin-2-yl)pyrimidin-2-yl)-N-methyl-3-(methylsulfinyl)-1H-indole-6-carboxamide], for which the inhibition at 1 µM came out at 104%. For the compound `CCc1ccnc(-c2cnc(-n3cc([S+](C)[O-])c4ccc(C(=O)N(C)CC(N)=O)cc43)nc2)c1` (stereo not shown) [Example 285, N-(2-Amino-2-oxoethyl)-1-(5-(4-ethylpyridin-2-yl)pyrimidin-2-yl)-N-methyl-3-(methylsulfinyl)-1H-indole-6-carboxamide], the inhibition at 1 µM is 91%.
